Test results published in PMC4227698, “Poly(Ethylene Glycol) as a Scaffold for High-Affinity Open-Channel Blockers of the Mouse Nicotinic Acetylcholine Receptor” (PLoS ONE, 2014).
Read-outs that look alike come from different tables or passages of the source.

Columns and labels:
[1] = molecular target: T1, adult mouse muscle AChR (α, β, δ, ε) (Mus musculus, UniProt P02716+P04756+P09690+P20782, V433A); test: Single-channel patch-clamp analysis of open-channel blockade of AChRs expressed in HEK-293 cells; assay type: cell-based; details: for effect on apparent mean open time (τapp): 100 µM ACh with 5, 10 or 20 µM PEG-QA; for unblocking rate constant k–B / blocking rate constant k+B: cell-attached; for unblocking rate constant k–B: average of unblocking rates at all tested concentrations; for blocking rate constant k+B: slope of linear fit of blocking rates
T1 construct: expressed in transfected cells; host or cells: HEK-293 cells (ATCC CRL-1573), transient calcium phosphate transfection, α:β:δ:ε = 2:1:1:1
T1 sequence (P04756 21-457 V433A): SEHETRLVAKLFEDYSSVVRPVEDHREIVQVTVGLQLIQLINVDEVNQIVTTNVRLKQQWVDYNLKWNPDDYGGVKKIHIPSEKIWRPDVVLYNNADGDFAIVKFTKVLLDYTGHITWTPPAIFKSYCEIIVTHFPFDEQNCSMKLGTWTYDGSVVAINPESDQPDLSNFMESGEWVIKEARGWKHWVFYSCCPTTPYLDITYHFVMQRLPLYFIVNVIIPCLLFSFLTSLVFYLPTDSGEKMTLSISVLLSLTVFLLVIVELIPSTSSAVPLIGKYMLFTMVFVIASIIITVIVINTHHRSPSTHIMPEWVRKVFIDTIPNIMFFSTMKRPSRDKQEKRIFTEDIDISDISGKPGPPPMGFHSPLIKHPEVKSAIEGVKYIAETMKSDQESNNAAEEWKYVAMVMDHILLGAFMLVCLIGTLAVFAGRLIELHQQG
T1 sequence (P09690 24-501): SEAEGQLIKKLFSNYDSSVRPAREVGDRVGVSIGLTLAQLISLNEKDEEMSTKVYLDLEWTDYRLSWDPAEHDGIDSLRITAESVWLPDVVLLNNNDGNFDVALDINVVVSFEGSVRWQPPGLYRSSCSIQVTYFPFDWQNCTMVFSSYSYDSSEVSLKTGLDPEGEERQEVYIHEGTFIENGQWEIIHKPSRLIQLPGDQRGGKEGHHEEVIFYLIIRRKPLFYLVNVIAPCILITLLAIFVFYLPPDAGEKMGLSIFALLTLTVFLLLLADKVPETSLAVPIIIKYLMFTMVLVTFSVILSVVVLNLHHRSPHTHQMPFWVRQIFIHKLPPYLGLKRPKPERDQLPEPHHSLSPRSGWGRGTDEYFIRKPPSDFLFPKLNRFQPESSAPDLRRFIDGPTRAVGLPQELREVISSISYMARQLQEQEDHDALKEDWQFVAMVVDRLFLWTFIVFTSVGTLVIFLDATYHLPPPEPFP
T1 sequence (P02716 25-520): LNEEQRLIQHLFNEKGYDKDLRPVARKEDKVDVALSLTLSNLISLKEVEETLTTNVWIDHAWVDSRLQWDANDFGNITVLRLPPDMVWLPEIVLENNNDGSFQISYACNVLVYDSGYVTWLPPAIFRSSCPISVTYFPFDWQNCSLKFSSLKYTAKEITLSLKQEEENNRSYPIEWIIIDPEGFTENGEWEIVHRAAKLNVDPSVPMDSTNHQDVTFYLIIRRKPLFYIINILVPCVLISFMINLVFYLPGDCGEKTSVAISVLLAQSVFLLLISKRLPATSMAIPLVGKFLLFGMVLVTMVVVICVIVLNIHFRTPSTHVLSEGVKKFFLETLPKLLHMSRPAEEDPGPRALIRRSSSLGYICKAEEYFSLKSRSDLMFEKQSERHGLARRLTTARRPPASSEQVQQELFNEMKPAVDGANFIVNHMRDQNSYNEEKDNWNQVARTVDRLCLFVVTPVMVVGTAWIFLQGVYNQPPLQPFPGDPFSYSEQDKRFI
T1 sequence (P20782 21-493): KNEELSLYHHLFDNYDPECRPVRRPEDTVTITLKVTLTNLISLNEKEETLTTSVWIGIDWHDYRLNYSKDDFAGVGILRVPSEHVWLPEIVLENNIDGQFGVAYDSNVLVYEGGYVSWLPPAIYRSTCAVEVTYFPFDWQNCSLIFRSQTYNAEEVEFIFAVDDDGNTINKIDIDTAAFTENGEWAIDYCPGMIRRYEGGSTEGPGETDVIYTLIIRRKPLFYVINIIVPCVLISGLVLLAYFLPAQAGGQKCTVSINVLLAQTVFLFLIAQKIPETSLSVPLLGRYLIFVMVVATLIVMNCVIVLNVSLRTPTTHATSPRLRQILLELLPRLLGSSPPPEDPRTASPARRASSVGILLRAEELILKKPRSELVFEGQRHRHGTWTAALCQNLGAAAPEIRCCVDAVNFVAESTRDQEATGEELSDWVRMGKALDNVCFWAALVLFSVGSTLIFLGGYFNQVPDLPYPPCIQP
Description: The cDNA clones of adult mouse muscle AChR subunits (α, β, δ, ε) in the vector pRBG4 were generously provided by Professor Anthony Auerbach (University at Buffalo, NY). […] Human embryonic kidney cells (HEK-293 cells, ATCC CRL-1573) were transiently transfected by calcium phosphate precipitation. In brief, HEK-293 cells were maintained in Dulbecco's […] (Invitrogen) supplemented with 10% Fetal Bovine Serum (Invitrogen) at 37°C and 5% CO2. Cells were plated 24 h before transfection to reach a confluence of 40–60%. A total of 3.5 µg DNA per 35-mm culture dish (α:β:δ:ε = 2∶1∶1∶1) was used. […] The medium was changed 24 h after the addition of DNA, and patch-clamp recordings were carried out 20–36 h thereafter.
Single-channel currents from AChRs were recorded using patch-clamp techniques in the cell-attached configuration. For dose-dependence measurements, a holding potential of +70 mV was applied. Kinetic analysis of single-channel currents was carried out using the QuB suite, [12]. The currents were idealized using the segmented k-means (SKM) hidden Markov algorithm at full bandwidth (10 kHz). Kinetic modeling of the idealized intervals was performed using the maximum interval likelihood (MIL) method, [12]. Additional details of recording and data analysis are provided in File S1.
MIL analysis on 2–4 cells was performed to determine the apparent mean open time (τapp), blocking rate, and unblocking rate for each measuring condition (reported as mean ± SEM). Uncertainties in the blocking rate constant (k+B values in Figure 2F) are reported as the standard errors in the least squares fits.
To test this hypothesis, we characterized the blockade kinetics of a series of PEG-QA conjugates (PQ1–PQ5; Figure 1) using patch-clamp electrophysiology. These conjugates were prepared from a short PEG, octa (ethylene glycol), through a three-step conversion (File S1). The chosen QA groups are small relative to the backbone length, and the hydrodynamic radii of these compounds are therefore expected to be similar. The kinetics and microscopic equilibrium affinity of channel blockade were determined by analyzing the acetylcholine (ACh)-elicited currents at the single-channel level. Channel activities were measured at 100 µM ACh in the absence or presence of 5, 10, or 20 µM of PEG-QA. […] The brief gaps within the clusters represent channel closing events.
Typical open-channel blockers follow a sequential blockade mechanism: the channel opens in response to ACh binding, and the blocker reversibly binds and dissociates from the transmembrane pore before the channel closes (Figure 1 and File S1). […] A new population of non-conducting blockade events, in addition to the brief closing and the long desensitized dwells, is also observed. These blockade events manifest themselves as a new component in the closed-time histogram. The relative area of the blockade component increases with increasing blocker concentration (reflecting the concentration-dependent rate of pore blockade), while the lifetime of this component (τB) is independent of blocker concentration (reflecting the unimolecular nature of blocker dissociation). These kinetic features allow the blocking and unblocking rate constants (k+B and k–B, respectively) to be determined by fitting of the dwell times under each set of conditions (File S1). […]
were amplified (Axopatch 200B, Axon Instruments, Foster City, CA), low-pass filtered at 10 kHz, and digitized at 20 kHz (NI 6040 E Data Acquisition Board, National Instruments, Austin, TX). Data were recorded directly to a desktop PC hard drive using the QuB software (www.qub.buffalo.edu).
1.3. Analysis of single-channel data (see also: Figure S1)
Kinetic analysis of single-channel currents was carried out using the QuB suite. The currents were idealized using the segmented k-means (SKM) hidden Markov algorithm at full bandwidth (10 kHz). Kinetic modeling of the idealized intervals […]

muscle-type AChR = details: cited from earlier work; for blocking rate constant k+B / unblocking rate constant k–B: ref Table S1 refs 1-12
[2] = molecular target: T1, adult mouse muscle AChR (α, β, δ, ε); test: Agonist potency of PEG-QA alone, single-channel recording; assay type: cell-based; details: 10 µM in the pipette solution without other agonists, +70 mV
From the text: Various QA compounds, including the prototype PEG-QA (PQ0), have been previously reported as agonists for the muscle-type AChR [8], [19], [26]–[28]. […] The agonist potencies of PEG-QAs correlate roughly inversely with the size of their QA groups (except PQ4; Figure S4). […] The low agonist potencies of PQ3 and PQ5 may be attributable to their bulky QA groups, which may cause reduced affinities for the agonist-binding pocket and/or interfere with receptor conformational changes required for channel gating. Open-channel blockers with low agonist potencies may be favorable in some applications, since their pharmacological effects are simpler and more predictable.
Supplementary file pone.0112088.s004.tif: Figure S4 The agonist potencies of PQ1–5. (A) Representative traces of single-channel recordings in the presence of individual PEG-QA (10 µM in the pipette solution without other agonists). Pipette potential was held at +70 mV, and the currents are shown as upward deflections. (B) The effect of QA structure on the open probability of the AChR (defined as [drawing 1] , where N max is the maximal number of simultaneously open channels and Po,i is the fraction of time in which i channels open simultaneously). Data are plotted in log-scale in order to present the low NPo values of PQ3 and PQ5. (C) The effect of QA structure on the mean open time of the AChR. […]

[3] = 100 µM ACh, +70 mV, predominant blockade mode
[4] = previously reported open-channel blockers, ref Table S1 refs 1-14, read-out: Kd (= k–B/k+B)
[5] = previously reported open-channel blockers
[6] = predominant blockade mode, 100 µM ACh, +70 mV, read-out: Kd (= k–B/k+B) for the open AChR pore
[7] = 20 µM blocker, held at +50, +70, +100, +130 mV

Structure (SMILES)	Kd (muscle-type AChR; [4]) [µM]	blocking rate constant k+B (muscle-type AChR; [5]) [M⁻¹ s⁻¹]	unblocking rate constant k–B (muscle-type AChR; [5])	other results
C[N+]1(CCOCCOCCOCCOCCOCCOCCOCC[N+]2(C)CCCCC2)CCCCC1 [PQ2]	–	–	–	Kd [1]: 0.08 ± 0.09 µM; effect on apparent mean open time (τapp) ([1]; +70 mV): dose-dependent decrease; unblocking rate constant k–B [1, 3]: 2 ± 2 s⁻¹; blocking rate constant k+B [1, 3]: 2.9e+07 ± 7e+06 M⁻¹ s⁻¹
C[N+](C)(C)CCO [choline]	12500	–	–	–
CC[N+](CC)(CC)CC [tetraethylammonium]	–	–	–	Kd (muscle-type AChR; read-out: Kd (= k–B/k+B)): 2700 µM
C[C@]12N[C@H](Cc3ccccc31)c1ccccc12 [MK-801]	2.4	2e+07	48 s⁻¹	–
CN1CCCN=C1/C=C/c1cccs1 [pyrantel]	8	8e+07	667 s⁻¹	–
C[N+](C)(C)CCOCCOCCOCCOCCOCCOCCOCC[N+](C)(C)C [PQ0]	–	–	–	Kd (muscle-type AChR; prototype PEG-trimethylammonium blockers, read-out: Kd for the AChR pore): 9 ± 2 µM
CC[N+](CC)(CC)CCOCCOCCOCCOCCOCCOCCOCC[N+](CC)(CC)CC [PQ4]	–	–	–	effect on apparent mean open time (τapp) ([1]; +70 mV): dose-dependent decrease; unblocking rate constant k–B [1, 3]: 4 ± 3 s⁻¹; blocking rate constant k+B [1, 3]: 2.2e+07 M⁻¹ s⁻¹; Kd [1, 6]: 0.19 ± 0.15 µM
Nc1nnc(-c2cccc(Cl)c2Cl)c(N)n1 [lamotrigine]	93	6.2e+06	575 s⁻¹	–
CCC[N+](C)(CCC)CCOCCOCCOCCOCCOCCOCCOCC[N+](C)(CCC)CCC [PQ5]	–	–	–	agonist potency (channel open probability and opening duration with compound alone) [2]: poor agonists; voltage dependence of k+B [1, 7]: increases with membrane hyperpolarization; voltage dependence of τapp [1, 7]: decreases with hyperpolarizing; effect on apparent mean open time (τapp) ([1]; +70 mV): dose-dependent decrease; unblocking rate constant k–B [1, 3]: 2 ± 1 s⁻¹; blocking rate constant k+B [1, 3]: 1.5e+07 ± 1e+06 M⁻¹ s⁻¹; Kd [1, 6]: 0.12 ± 0.09 µM
CNC(=O)Oc1ccc2c(c1)[C@]1(C)CCN(C)[C@@H]1N2C [physostigmine]	23	2e+07	450 s⁻¹	–
CNC1(c2ccccc2Cl)CCCCC1=O (stereo not shown) [ketamine]	33	3e+06	100 s⁻¹	–
COc1cc2c3cc1Oc1cc(ccc1O)C[C@@H]1c4c(cc(OC)c(O)c4Oc4ccc(cc4)C[C@@H]3N(C)CC2)CC[N+]1(C)C [(+)-tubocurarine]	0.27	3e+06	0.8 s⁻¹	–
CC[N+](CC)(CC)CC(=O)Nc1c(C)cccc1C [QX-314]	~1	1.9e+07	~ 30 s^−1	–
CC[N+]1(CCOCCOCCOCCOCCOCCOCCOCC[N+]2(CC)CCCCC2)CCCCC1 [PQ3]	–	–	–	agonist potency (channel open probability and opening duration with compound alone) [2]: poor agonists; effect on apparent mean open time (τapp) ([1]; +70 mV): dose-dependent decrease; unblocking rate constant k–B [1, 3]: 4 ± 2 s⁻¹; blocking rate constant k+B [1, 3]: 2.2e+07 ± 6e+06 M⁻¹ s⁻¹; Kd [1, 6]: 0.17 ± 0.12 µM
Cc1cccc(C)c1NC(=O)C[N+](C)(C)C [QX-222]	~30	2.1e+07	~ 600 s^−1	–
CC(C)(C)NCC(O)c1ccc(O)c(CO)c1 (stereo not shown) [albuterol]	24	4.3e+07	1042 s⁻¹	–
CC(=O)OCC[N+](C)(C)C [acetylcholine]	1200	3.7e+07	56000 s⁻¹	–
C[N+]1(CCOCCOCCOCCOCCOCCOCCOCC[N+]2(C)CCCC2)CCCC1 [PQ1]	–	–	–	effect on apparent mean open time (τapp) ([1]; +70 mV): dose-dependent decrease; unblocking rate constant k–B [1, 3]: 64 ± 14 s⁻¹; blocking rate constant k+B [1, 3]: 2e+07 ± 4e+06 M⁻¹ s⁻¹; predominant blockade mode ([1]; faster- vs slower-dissociation mode): faster-dissociation mode; Kd [1, 6]: 3 ± 1 µM
Br.C[N+](C)(C)CCCCCNCC12CC3CC(CC(C3)C1)C2.[Br-] [IEM-1460]	12	7.2e+07	858 s⁻¹	–
CCN(CC)CCOC(=O)c1ccc(N)cc1 [procaine]	100	2e+06	200 s⁻¹	–
